# Assay: Solubility in hydrochloric acid (gastric juice)
# Type: physicochemical
structure (smiles),measurement,value
CCOC(=O)Nc1ccc(NCc2ccc(F)cc2)nc1N [Flupirtinmaleat],Löslichkeit in Salzsäure (Magensaft),löslich

# From EP1795186B1, “Flupirtin comprising medicament formulation with a controlled release of the active agent” (TEVA GmbH, priority 2005, dated 2007)
